In US20110319660A1 (Galactic SA, priority 2008, published 2011):

What was measured:
[1] = Secondary nucleation temperature Tn of lactic acid solution; type: physicochemical
Procedure: We measured the secondary nucleation temperature for more reproducibility. For this purpose, a few large crystals (three or four) are introduced into the slightly subcooled solution (26° C.). These crystals are used to initiate nucleation. To obtain nucleation, the solution is cooled according to a cooling gradient of 10° C./hr. The nucleation temperature is measured when the first crystal (excluding crystals in solution) appears.

[2] = Specific surface area by mass of crystals by optical microscopy; type: physicochemical
From the text: The specific surface area by mass (SSM) of crystals is the area developed by the crystals per unit of weight. The specific surface area by mass (SSM) is used to compare the dimensional characteristics of crystals of a suspension or a powder with those of another suspension or powder. This specific surface area can be measured by means of optical imaging on the basis of a volume (Vm) and the mean surface area (Sm) of hundreds of crystals (by measuring the length of the face thereof) and the density of the crystals (Dc):
The crystal size measurements were made using an optical microscope (Askania RME5) equipped with a digital camera (Nikon Coolpix 4500) with crystal measurement software supplied by Leica. For both test conditions, the length (L1) and thickness (L2) of 200 crystals were measured.
The specific surface area by mass of the crystals obtained at low supersaturation is 0.03 m^2/g whereas that of the crystals at high supersaturation is 0.06 m^2/g. This is calculated by taking the surface area and the volume of a parallelepiped having a length L1 and width and thickness L2.
The specific surface area by mass of the crystals is also estimated by measuring the length and thickness of 200 crystals of each sample according to the protocol described in example 1.

[3] = Thermal stability test: colour after heating at reflux at 200° C. for two hours; conditions: 90% solution of crystals
Procedure: The analyses conducted on the 90% crystal solutions are a measurement of the colour at ambient temperature (APHA scale in Hazen units) and a thermal stability test consisting of measuring the colour (APHA scale in Hazen units) of the substance after heating at reflux at a temperature of 200° C. for two hours.

secondary nucleation temperature ([1]; Example 1: lactic acid concentration 92%, colour 2000 Hazen, relative monomer content 96%): 18 °C | Tn ([1]; Example 2: lactic acid concentration 90%, colour 1800 Hazen, relative monomer content 94%): 18 °C | Tn ([1]; Example 4: lactic acid concentration 95.4%, colour 1900 Hazen, relative monomer content 91%): 33 °C | Tn ([1]; total acidity 89%, free acidity 78.7%, relative monomer content 77%): 8 °C | Tn ([1]; total acidity 89%, free acidity 84%, relative monomer content 89%): 15 °C | Tn ([1]; total acidity 89%, free acidity 87.6%, relative monomer content 97.5%): 22 °C | Tn ([1]; total acidity 89%, free acidity 88.2%, relative monomer content 99%): 23 °C | Specific surface area by mass ([2]; Example 1: crystals obtained at high supersaturation Ds^c=87.5%): 0.06 m^2/g | Specific surface area by mass ([2]; Example 1: crystals obtained at low supersaturation Ds^c=12.5%): 0.03 m^2/g | Specific surface area by mass ([2]; Example 2: crystals, supersaturation 14%): 0.03 m^2/g | Specific surface area by mass ([2]; Example 2: crystals, supersaturation 50%): 0.045 m^2/g | Specific surface area by mass ([2]; Example 2: crystals, supersaturation 86%): 0.07 m^2/g | Colour after heating (200° C., 2 hrs), after drying ([3]; Example 2: supersaturation 14%): 500 Hazen | Colour after heating (200° C., 2 hrs), after passage on Noritt ROX activated carbon (20 g/l) ([3]; Example 2: supersaturation 14%): 25 Hazen | Colour after heating (200° C., 2 hrs), after washing (25% of a 90% lactic acid solution, 4° C.) ([3]; Example 2: supersaturation 14%): 49 Hazen | Colour after heating (200° C., 2 hrs), after drying ([3]; Example 2: supersaturation 50%): 900 Hazen | Colour after heating (200° C., 2 hrs), after passage on Noritt ROX activated carbon (20 g/l) ([3]; Example 2: supersaturation 50%): 45 Hazen | Colour after heating (200° C., 2 hrs), after washing (25% of a 90% lactic acid solution, 4° C.) ([3]; Example 2: supersaturation 50%): 88 Hazen | Colour after heating (200° C., 2 hrs), after drying ([3]; Example 2: supersaturation 86%): 1328 Hazen | Colour after heating (200° C., 2 hrs), after washing (25% of a 90% lactic acid solution, 4° C.) ([3]; Example 2: supersaturation 86%): 480 Hazen
Structure (SMILES): CC(O)C(=O)O (centres unmarked) [lactic acid, hydroxy-2-propanoic acid]
